Columns and labels:
Format in all cases: in vivo
[1] = tested on: rat model of chronic pain (L5/L6 spinal nerve ligation); experiment: L5/L6 nerve ligation injury, tactile allodynia (von Frey)
Procedure: (§1) Inflammatory (Formalin flinch test) and chronic pain (L5/L6 nerve ligation injury) models were used as assays in both rats and mice.
(§2) Nerve ligation injury was performed according to the method described previously (Kim and Chung). This methodology produces signs of tactile allodynia and thermal hyperalgesia. Rats were anesthetized with halothane and the L5 and L6 spinal nerves were exposed, carefully isolated, and tightly ligated with 4-0 silk suture distal to the dorsal root ganglia (DRG). After ensuring homeostatic stability the wounds were sutured, and the animals were allowed to recover in individual cages. Sham-operated rats were prepared in an identical fashion except that the L5 and L6 spinal nerves were not ligated. Compound 17 was tested in rats after L5/L6 nerve ligation. Compound administration was directly into the hind paw (i.paw) or into the peritoneal cavity (i.p.).
In the evaluation of the tactile allodynia, the paw withdrawal threshold was determined in response to probing with calibrated von Frey filaments. The rats were kept in suspended cages with wire mesh floors and the von Frey filaments were applied perpendicularly to the planar surface of the paw of the rat until it bent slightly, and was held for 3 to 6 s, or until the paw is withdrawn. […] The 50% paw withdrawal threshold was determined by the nonparametric method. […]

[2] = tested on: rat model of chronic pain (L5/L6 spinal nerve ligation); experiment: L5/L6 nerve ligation injury, thermal hyperalgesia
Procedure: as §1, §2

[3] = tested on: rat model of inflammatory pain (formalin-injected paw); experiment: Formalin flinch test; settings: i.p.
Procedure: as §1
Animals are habituated to the their local environment for about 30 min prior to testing. The formalin test is carried out in a 30×30×30 cm chamber with the front and bottom of the chambers made of clear plexi-glass. Mirrors are placed at a 45° angle under the chambers in order to have an un-obstructive view of the paws. Animals are restrained manually and 2% formalin (aq) is injected subcutaneously into the planar surface of the left paw with a 30 gauge needle. The numbers of paw flinches are then recorded in 5 min intervals from the time of injection for a 60 min period. Elevations of the paw, licking and biting of the injected paw were counted as “flinches”. The […] or “first phase” of the nociceptive response peaked at 5 min after formalin injection and the inflammatory or “second phase” peaked at 30 min after formalin injection. The number of flinches in the first 10 min were representative of the […] phase and the number of flinches from 10 min until 60 min were representative of the inflammatory phase. Antinociception for both phase I and phase II was calculated as follows: […]
Potency (A50) is calculated from the full dose response curve for both phase I and phase II.

NC(=O)CCCN(CCCC1CCCCC1)C(=O)Nc1ccccc1 [Compound 17, 4-[1-(3-cyclohexylpropyl)-3-phenylureido]butyramide]
antiallodynic effect ([1]; 100 μg (in 50 μl) into the paw): 90%
A50 L5/L6 antiallodynia ([1]; i.paw): <30 mg/paw
antihyperalgesic response to thermal testing ([2]; 30 μg (in 50 μl) into the paw): 100%
A50 L5/L6 antihyperalgesia ([2]; i.paw): <30 μg/paw
A50 Formalin Phase I ([3]; phase I (first 10 min)): <0.01 mg/kg
A50 Formalin Phase II ([3]; phase II (10-60 min)): 0.01 mg/kg

Reference: US20100105777A1, “AMIDE OR THIOAMIDE DERIVATIVES AND THEIR USE IN THE TREATMENT OF PAIN” (CARA THERAPEUTICS, INC., priority 2004, published 2010)
